Test: gradient 5% acetonitrile 3 min, to 50% in 2 min, to 85% in 15 min, held 3 min, 100 µL/min
Conditions: column: Zorbax Extend-C18 2.1 x 50 mm; eluents: water / acetonitrile, 0.1% formic acid
In short: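 Retention times of pure standards were taken from adduct peaks that were selected by computer and manually inspected. Over 3 months, mixtures of ~100 molecules were run by HPLC–quadrupole time-of-flight mass spectrometry in positive and negative ionization mode. The Zorbax Extend-C18 column (2.1 × 50 mm, 1.8 μm) ran at 100 μL/min in water and acetonitrile, each containing 0.1% formic acid, with 40 μL dead volume and 900 μL dwell volume.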

Structure (SMILES) | RP-LC retention time [s]
Cc1nnc(N2CCCC(C(=O)NCCc3ccc(Cl)cc3)C2)c2nn(-c3ccccc3)c(C)c12 (stereo not given) | 784
Cc1nc2cc(-c3noc(-c4c(F)cccc4Cl)n3)ccc2o1 | 1100
CCCSCCCNc1nc(-c2nnc(-c3ccccc3)o2)nc2ccccc12 | 1100
CN1C(=O)c2cccn2CC1CNC(=O)c1ccnn1C (stereo not given) | 591
O=S(=O)(CCCOc1ccc(F)cc1)NCC1CCCO1 (stereo not given) | 763
Cc1ccn2cc(C(=O)N3CCN(c4ccc(F)cc4)CC3)nc2c1 | 650
COC(=O)Nc1ccc(CC(=O)NCC(F)(F)F)cc1 | 639
CCn1ncn2cc(S(=O)(=O)Nc3ccc(C)c(C)c3)cc2c1=O | 930
COCCN1C(=O)[C@H]2CN(Cc3cccc(C#N)c3)C[C@H]2C1=O | 607
COc1cc(NC(=O)CCc2nc(-c3ccc(N4CCCC4)cc3)no2)cc(OC)c1 | 1070
CCCOc1nc2ccccc2nc1N1CCCC(C(=O)Nc2ccc(OC)c(OC)c2)C1 (stereo not given) | 1130
Cc1oc(-c2[nH]ncc2C(=O)N2CCCCC2)cc1S(=O)(=O)N1CCOCC1 | 654
Cc1nc([C@H]2CCN(Cc3ccc4[nH]ccc4c3)C[C@H]2N(C)C)n[nH]1 | 520
Cc1ccc(-c2cn3cccnc3n2)cc1NC(=O)c1cccc(Br)c1 | 723
Cc1cc(C)cc(N2CCC(NC(=O)NC(C)C)C2=O)c1 (stereo not given) | 736
CCn1c(=O)c(C(=O)NCc2ccc(F)cc2F)nc2cccnc21 | 816
COC1CCC12CCN(C(=O)c1ccco1)CC2 (stereo not given) | 735
Cc1cccc(C(=O)Nc2ccc(N3CCN(C4CCCC4)C3=O)nc2)c1 | 888
COc1cccc(CSc2ccc(-n3nc4c(c3C)CCC4)nn2)c1 | 1240
CO[C@H]1C(=O)N(C2CCN(S(=O)(=O)c3c(C)noc3C)CC2)[C@H]1c1ccncc1 | 625
Cn1nccc1-c1cccc(-c2noc(-c3ccc(F)c(F)c3)n2)c1 | 1170
O=C(NCc1ccccn1)C1c2ccccc2C(=O)N(Cc2ccccc2)C12CCCC2 (stereo not given) | 704
CC1Cc2ccccc2N1S(=O)(=O)CCCOc1ccc2c(c1)OCO2 (stereo not given) | 1020

Structure (SMILES) | RP-LC retention time [s]
O=c1c2scc(-c3ccc(F)cc3)c2ncn1CCOc1ccccc1 | 1070
CCc1ccccc1NC(=O)CSc1nccc(N2CCN(c3cc(C)ccc3C)CC2)n1 | 1060
CCN1C(=O)c2cccnc2Sc2cc(C(=O)NCc3cccc(F)c3)ccc21 | 810
O=C(NCc1ccc(-c2noc(-c3cc(F)cc(F)c3)n2)s1)C1CC1 | 952
CCN1C(=O)c2cccnc2Sc2cc(NC(=O)c3ccccc3Cl)ccc21 | 828
CCOC(=O)C1CCCN(CC(O)COc2ccccc2Br)C1 (stereo not given) | 590
CCN(c1ccccc1C)S(=O)(=O)c1cc(-c2[nH]ncc2C(=O)N2CCCC2)oc1C | 819
COc1c(OP2(=S)OCC(C)(C)CO2)cnn(C2CCCCC2)c1=O | 1190
O=C(Nc1ccc2c(c1)OCCO2)N1CCCC(Cn2cnc3cccnc32)C1 (stereo not given) | 637
COc1ccc(Nc2c(C(=O)N3CCC(C)CC3)cnc3nc(C)ccc23)cc1 | 638
Cc1sc(NC(=O)c2ccccc2Br)nc1-c1ccc2c(c1)NC(=O)C(C)O2 (stereo not given) | 943
COc1ccc(NC(=O)Cn2nc3c(Oc4cccc(F)c4)nccn3c2=O)cc1 | 814
O=C(Cc1ccc(F)cc1)N1CCN(c2cc(-c3cccs3)[nH]n2)CC1 | 782
COCC(=O)NC1CCC12CCN(C(C)=O)CC2 (stereo not given) | 589
O=C(CNC(=O)c1ccccn1)Nc1nc2ccccc2[nH]1 | 601
COc1ccc(-c2noc(CN3N=NC4C(=O)N(c5ccc(C)c(F)c5)C(=O)C43)n2)c(OC)c1 (stereo not given) | 844
CCCn1ccc2sc(C)c(C(=O)NCCOC)c2c1=O | 652
Fc1ccc(F)c(CN2CCCCC2c2nc(-c3cnccn3)no2)c1 (stereo not given) | 918
CC(NC(=O)Cc1cn(C)c2ncccc12)c1ccccc1 (stereo not given) | 679
CC(C)n1c(=O)oc2cc(-c3noc(-c4ccc5cc[nH]c5c4)n3)ccc21 | 1100
CCn1c(=O)n(CC(=O)N(C)C2CCCCC2)c(=O)c2cnc(-c3ccccc3)nc21 | 1130
COc1cc(OC)c(NC(=O)Cn2nc3c(cc2=O)CCCC3)cc1Cl | 719
O=S(=O)(c1cccn2c(SCc3ccccc3F)nnc12)N1CCCC1 | 803

Structure (SMILES) | RP-LC retention time [s]
O=C(NCCCc1ccccc1)C1CCCN(c2nccnc2Oc2ccccc2)C1 (stereo not given) | 1020
CCC(C)NC(=O)c1ccc2c(c1)CC(=O)N2C (stereo not given) | 644
COc1ccc(N2CCN(C(=O)c3csc(-c4ccc(N5CCCC5)nc4)n3)CC2)cc1 | 651
CCOc1ccc(-c2noc(CN3C(=O)COc4ccc(C(C)(C)C)cc43)n2)cc1OC | 1230
O=C(NCCC1CCN(S(=O)(=O)c2ccc(F)cc2)CC1)NCc1ccc(F)cc1 | 852
CCOc1ccc(C(=O)Nc2cnn(-c3ncncc3N3CCC(C)CC3)c2)cc1 | 929
CN1CCC(NC(=O)c2ncoc2-c2ccccc2)CC1 | 602
Cc1ccn2c(NC(=O)COc3ccccc3)c(-c3ccccc3)nc2c1 | 683
O=C(NCc1ccccc1C(F)(F)F)c1ccnc(N2CCCCC2)n1 | 1190
O=C(Cn1nc2c3ccc(Cl)cc3ncn2c1=O)Nc1ccc(F)cc1 | 744
Cc1ccc(C(=O)Nc2ccc(N3CCN(C4CCCC4)C3=O)nc2)cc1F | 918
CCS(=O)(=O)N1CCCN(C2=NS(=O)(=O)C(c3ccc(C)c(C)c3)=C2C)CC1 | 872
O=C(NCCOc1ccc(F)cc1)c1cc(-c2cccs2)n(C2CCS(=O)(=O)C2)n1 (stereo not given) | 793
Cc1ccoc1C(=O)N[C@@H]1CN(c2ncccn2)C[C@H]1CO | 588
O=C(Nc1ccc(SCc2nnc(-c3ccc4c(c3)OCO4)o2)cc1)C1CCCCC1 | 1020
CCc1cccc(NC(=O)Cc2cn3cc(F)ccc3n2)c1 | 638
Cc1ccc(-c2cc3c(=O)n(CC(=O)N4CCCc5ccccc54)ccn3n2)cc1 | 643
Cc1cc(S(=O)(=O)N2CCCCC2c2nncn2C)ccc1F (stereo not given) | 717
CCN(CC)C(=O)N1CC(n2cc(C(=O)N3CCOCC3)nn2)C1 | 612
COc1cc(NC(=O)Cn2cc(-c3nnc(C)o3)c3ccccc32)cc(OC)c1 | 809
CCCNC(=O)c1cnn(-c2cc(-c3nc(C)no3)ccn2)c1C | 772
COC(=O)c1c(C)c(C(=O)C(C)N(CC(C)C)C(=O)c2ccc(Cl)cc2)c(C)n1C (stereo not given) | 1080
CCS(=O)(=O)N1CCC(c2noc(COCCOC)n2)CC1 | 681

Structure (SMILES) | RP-LC retention time [s]
O=C(CCCN1CCN(Cc2ccc(F)cc2)C(=O)C1=O)NCc1ccc(F)cc1 | 721
COc1ccc(CC(=O)NC2CCN(c3cc(-c4ccccc4)[nH]n3)C2)cc1OC (stereo not given) | 659
O=c1c2ccccc2c2ccccc2c(=O)n1Cc1ccco1 | 966
CN(CC1CCOCC1)S(=O)(=O)Cc1ccccc1Cl | 834
CC(C)CNC(=O)c1cn(-c2ncccc2-c2nc(C(C)(C)C)no2)cn1 | 872
Cc1nnc(-c2ccc3ccn(CC(=O)NCc4ccccc4)c3c2)o1 | 1010
COc1ccc(CN2C=C(C(=O)OCc3noc(-c4ccccc4F)n3)C(C)=NS2(=O)=O)cc1 | 1090
Cc1ccsc1C(=O)NCc1ccc2c(c1)ncn2C | 597
C[C@H]1CN(C(=O)c2c[nH]c3ccccc23)C[C@@H]1c1nc(-c2cccnc2)no1 | 711
CN1c2cc(Cl)ccc2C(=O)NC12CCN(C(=O)Nc1cccc(F)c1)CC2 | 831
Cc1ccc(-c2nnc(Cc3nc(-c4ccc(C(F)(F)F)cc4)no3)o2)cc1F | 1180
CCOc1ccccc1NC(=O)N1CCC(n2cnc3ccccc3c2=O)CC1 | 801
O=c1n(Cc2cccc(C(F)(F)F)c2)nc2ccc(S(=O)(=O)N3CCCC3)cn12 | 938
CCc1cccc(NC(=O)Cn2c(=O)n(-c3ccc(F)cc3)c(=O)c3c2cc(C)n3C)c1 | 914
O=c1c(=O)n(-c2cccc(Cl)c2)ccn1Cc1nc(-c2ccccc2)no1 | 875
O=S(=O)(c1ccc(Br)cc1)N1CCc2nc[nH]c2C1 | 615
CC(C)(C)c1cc(C(=O)Nc2cccc(C#N)c2)nc2ccnn12 | 1170
O=C(NCc1ccc2c(c1)OCO2)C1CCN(C(=O)C2Sc3ccccc3NC2=O)CC1 (stereo not given) | 703
CCCn1nc(CNC(=O)c2cnccn2)c2ccccc21 | 765
Cc1ccc(CNc2c(-c3ccc(C(C)C)cc3)nc3ncccn23)cc1 | 907
COc1c2c(cc3c1[C@@H]1Oc4c(ccc(O)c4CC=C(C)C)[C@@H]1CO3)OC(C)(C)C=C2 | 710

Reference: the METLIN SMRT retention time set (Domingo-Almenara et al. 2019)
